Data taken from patent publication US11459340B2, “Tri-substituted heteroaryl derivatives as Src homology-2 phosphatase inhibitors” (Nikang Therapeutics, Inc., priority 2018, dated 2022).

Molecular target: SHP2 (Homo sapiens (Human), UniProt Q06124)
Assay: SHP2 Allosteric Inhibition Assay (DiFMUP substrate, bisphos-IRS1 peptide activation)
Assay type: biochemical
Conditions: 0.5 μM bisphos-IRS1 peptide, 100 uM DiFMUP, room temperature
Description: At the basal state, SHP2 is auto-inhibited and access of substrates to the catalytic site is blocked by the […] interactions between the SH2 domains and the PTP domain. When bis-tyrosyl-phosphorylated peptides bind to SH2 domain of SHP2, the PTP domain becomes available for substrate recognition and reaction catalysis and SHP2 is allosterically activated. SHP2 catalytic activity can be measured using a fluorogenic artificial substrate DiFMUP.
The phosphatase reactions were carried out at room temperature in 384-well black polystyrene plates (Greiner Bio-One, Cat #784076) using assay buffers containing 60 mM HEPES, pH 7.2, 75 mM NaCl, 75 mM KCl, 1 mM EDTA, 0.05% P-20, and 5 mM DTT.
0.33 nM of […] was co-incubated with of 0.5 μM of bisphos-IRS 1 peptide (sequence: H2N-LN(pY)IDLDLV(dPEG8)LST(pY)ASINFQK-amide) and various concentrations of compounds for 30-60 min at room temperature. Then the reaction was initiated by addition of the surrogate substrate DiFMUP (Invitrogen, Cat #D6567, 100 uM final).
The real-time conversion of DiFMUP to DiFMU (6,8-difluoro-7-hydroxyl-4-methyl-coumarin) was measured every 5 min for 30 min using a microplate reader (CLARIOstar, BMG Labtech) with excitation and emission wavelengths of 340 nm and 450 nm, respectively. Initial reaction rates were determined by linear fitting of the data and the inhibitor dose response curves were analyzed using normalized IC50 regression curve fitting with control based normalization.

Sequence of SHP2 (Q06124 whole entry): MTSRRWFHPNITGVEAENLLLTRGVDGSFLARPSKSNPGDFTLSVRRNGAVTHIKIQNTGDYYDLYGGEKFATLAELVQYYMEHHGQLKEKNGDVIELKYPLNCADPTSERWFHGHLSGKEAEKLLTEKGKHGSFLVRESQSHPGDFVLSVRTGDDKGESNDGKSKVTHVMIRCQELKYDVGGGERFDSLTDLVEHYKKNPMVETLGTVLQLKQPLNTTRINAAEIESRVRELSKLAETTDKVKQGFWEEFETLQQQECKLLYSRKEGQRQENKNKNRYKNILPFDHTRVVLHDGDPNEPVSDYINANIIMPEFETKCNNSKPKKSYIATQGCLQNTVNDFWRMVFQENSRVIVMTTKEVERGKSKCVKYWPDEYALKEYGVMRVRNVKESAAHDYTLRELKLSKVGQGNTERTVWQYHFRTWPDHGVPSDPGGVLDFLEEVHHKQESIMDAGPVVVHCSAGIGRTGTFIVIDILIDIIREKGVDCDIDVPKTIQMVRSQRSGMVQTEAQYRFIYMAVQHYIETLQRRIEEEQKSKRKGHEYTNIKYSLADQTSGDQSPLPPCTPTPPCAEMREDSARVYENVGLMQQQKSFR

Row | Compound | IC50 [nM]
1 | C[C@@H]1OCC2(CCN(c3ncc(Sc4ccnc5c4OC[C@@H]4C[C@H](O)CN54)nc3CO)CC2)[C@@H]1N [Compound 18, (6aS,8S)-4-((5-((3S,4S)-4-amino-3-methyl-2-oxa-8-azaspiro[4.5]decan-8-yl)-6-(hydroxymethyl)pyrazin-2-yl)thio)-6a,7,8,9-tetrahydro-6H-pyrido[3,2-b]pyrrolo[1,2-d][1,4] oxazin-8-ol] | 6
2 | C[C@@H]1OCC2(CCN(c3ncc(Sc4ccnc5c4OC[C@@H]4C[C@H](F)CN54)nc3CO)CC2)[C@@H]1N [Compound 14, (3-((3S,4S)-4-amino-3-methyl-2-oxa-8-azaspiro[4.5]decan-8-yl)-6-(((6aS,8S)-8-fluoro-6a,7,8,9-tetrahydro-6H-pyrido[3,2-b]pyrrolo[1,2-d] [1,4]oxazin-4-yl)thio)pyrazin-2-yl)methanol] | 13
3 | C[C@@H]1OCC2(CCN(c3ncc(Sc4ccnc5c4OC[C@@H]4C[C@@H](F)CN54)nc3CO)CC2)[C@@H]1N [Compound 15, (3-((3S,4S)-4-amino-3-methyl-2-oxa-8-azaspiro[4.5]decan-8-yl)-6-(((6aS,8R)-8-fluoro-6a,7,8,9-tetrahydro-6H-pyrido[3,2-b]pyrrolo[1,2-d] [1,4]oxazin-4-yl)thio)pyrazin-2-yl)methanol] | 5
4 | C[C@@H]1OCC2(CCN(c3ncc(Sc4ccnc5c4OC[C@@H]4C[C@H](O[C@@H]6CCOC6)CN54)nc3CO)CC2)[C@@H]1N [Compound 28, (3-((3S,4S)-4-amino-3-methyl-2-oxa-8-azaspiro[4.5]decan-8-yl)-6-(((6aS,8S)-8-(((R)-tetrahydrofuran-3-yl)oxy)-6a,7,8,9-tetrahydro-6H-pyrido[3,2-b]pyrrolo[1,2-d][1,4]oxazin-4-yl)thio)pyrazin-2-yl)methanol] | 12
5 | C[C@@H]1OCC2(CCN(c3ncc(Sc4ccnc5c4OC[C@@H]4C[C@@H](O)CN54)nc3CO)CC2)[C@@H]1N [Compound 19, (6aS,8R)-4-((5-((3S,4S)-4-amino-3-methyl-2-oxa-8-azaspiro[4.5]decan-8-yl)-6-(hydroxymethyl)pyrazin-2-yl)thio)-6a,7,8,9-tetrahydro-6H-pyrido[3,2-b]pyrrolo[1,2-d][1,4]oxazin-8-ol] | 8
6 | CO[C@H]1C[C@H]2COc3c(Sc4cnc(N5CCC6(CC5)CO[C@@H](C)[C@H]6N)c(CO)n4)ccnc3N2C1 [Compound 16, (3-((3S,4S)-4-amino-3-methyl-2-oxa-8-azaspiro[4.5]decan-8-yl)-6-(((6aS,8S)-8-methoxy-6a,7,8,9-tetrahydro-6H-pyrido[3,2-b]pyrrolo[1,2-d][1,4]oxazin-4-yl)thio)pyrazin-2-yl)methanol] | 8
